Experimental data from US7122555B2, “Pyrido [2,1-a] isoquinoline derivatives” (Hoffmann-la Roche Inc., priority 2003, dated 2006).
pIC50: −log10 of the molar value.

target: human DPP-IV (Homo sapiens, UniProt P27487); experiment: DPP-IV activity assay (fluorogenic or colorimetric substrate), IC50 determination
Sequence (P27487 31-766): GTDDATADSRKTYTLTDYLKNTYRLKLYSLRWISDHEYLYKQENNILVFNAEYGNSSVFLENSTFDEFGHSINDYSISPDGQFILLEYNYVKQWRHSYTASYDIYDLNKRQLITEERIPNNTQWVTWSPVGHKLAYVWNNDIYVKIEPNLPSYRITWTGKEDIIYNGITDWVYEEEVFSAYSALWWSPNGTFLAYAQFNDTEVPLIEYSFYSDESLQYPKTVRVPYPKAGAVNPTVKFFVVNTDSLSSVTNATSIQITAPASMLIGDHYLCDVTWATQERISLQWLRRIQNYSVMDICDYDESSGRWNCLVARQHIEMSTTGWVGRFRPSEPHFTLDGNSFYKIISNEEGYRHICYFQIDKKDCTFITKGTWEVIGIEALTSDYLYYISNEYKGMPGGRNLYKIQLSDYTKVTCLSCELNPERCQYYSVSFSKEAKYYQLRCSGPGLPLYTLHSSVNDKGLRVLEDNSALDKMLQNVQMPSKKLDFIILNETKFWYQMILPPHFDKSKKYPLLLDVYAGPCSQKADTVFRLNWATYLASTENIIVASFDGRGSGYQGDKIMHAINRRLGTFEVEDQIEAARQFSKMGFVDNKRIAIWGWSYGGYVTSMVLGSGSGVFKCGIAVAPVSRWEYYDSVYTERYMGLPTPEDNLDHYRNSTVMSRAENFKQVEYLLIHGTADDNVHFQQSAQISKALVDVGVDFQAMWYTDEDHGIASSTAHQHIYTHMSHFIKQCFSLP
Description: Activity of DPP-IV inhibitors are tested with natural human DPP-IV derived from a human plasma pool or with recombinat human DPP-IV. Human citrate plasma from different donors is pooled, filterted through a 0.2 micron membrane under sterile conditions and aliquots of 1 ml are shock frozen and stored at −120° C. until used. In the colorimetric DPP-IV assay 5 to 10 μl human plasma and in the fluorometric assay 1.0 μl of human plasma in a total assay volume of 100 μl is used as an enzyme source. […] In the calorimetric DPP-IV assay 20 ng rec.-h DPP-IV and in the fluorometric assay 2 ng rec-h DPP-IV in a total assay volume of 100 μl is used as an enzyme source.
Initial rate constants are calculated by best fit linear regression.
The absorption of pNA liberated from the colorimetric substrate is detected in a Packard SpectraCount at 405 nm continuosly every 2 minutes for 30 to 120 minutes. Initial rate constants are calculated by best fit linear regression.
DPP-IV activity assays are performed in 96 well plates at 37° C. in a total assay volume of 100 μl. The assay buffer consists of 50 mM Tris/HCl pH 7.8 containing 0.1 mg/ml BSA and 100 mM NaCl. Test compounds are solved in 100% DMSO, diluted to the desired concentration in 10% DMSO/H2O. The final DMSO concentration in the assay is 1% (v/v). At this concentration enzyme inactivation by DMSO is <5%. Compounds are with (10 minutes at 37° C.) and without preincubation with the enzyme. Enzyme reactions are started with substrate application followed by immediate mixing.
Kinetic parameters of the enzyme reaction are calculated at at least 5 different substrate concentrations and at least 5 different test compound concentrations.

**Q.** With `COc1cc2c(cc1OC)[C@@H]1C[C@H](N)[C@@H](C(=O)N3CCSC3)CN1CC2` (racemic) [Example 2, (RS,RS,RS)-(2-Amino-9,10-dimethoxy-1,3,4,6,7,11b-hexahydro-2H-pyrido[2,1-a]isoquinolin-3-yl)-thiazolidin-3-yl-methanone] as the compound, how does the pIC50 read?
**A.** The pIC50 was 7.39.

**Q.** `COc1cc2c(cc1OC)[C@@H]1C[C@H](N)[C@@H](N3CCC=CC3=O)CN1CC2` (racemic) [Example 12, (RS,RS,RS)-1-(2-Amino-9,10-dimethoxy-1,3,4,6,7,11b-hexahydro-2H-pyrido [2,1-a]isoquinolin-3-yl)-5,6-dihydro-1H-pyridin-2-one] was tested. Which pIC50 did it give?
**A.** Its pIC50 is 7.48.

**Q.** How did the pIC50 turn out when `COc1cc2c(cc1OC)[C@@H]1C[C@H](N)[C@@H](N3CCCCS3(=O)=O)CN1CC2` [Example 16, (S,S,S)-3-(1,1-Dioxo-[1,2]thiazinan-2-yl)-9,10-dimethoxy-1,3,4,6,7,11b-hexahydro-2H-pyrido[2,1-a]isoquinolin-2-ylamine] was run?
**A.** The pIC50 was 6.88.
